The source of these data is patent publication US20260125346A1, “Isoquinolinone Derivatives and 4H-Quinolizinone Derivatives and Pharmaceutical Compositions Thereof for the Treatment of Disease” (BeOne Medicines I GmbH, priority 2023, published 2026).

Holding throughout (type): cell-based
Experiment [1] concerns PI3Kα H1047R mutated cell line T-47D. The experiment is described as follows: Phospho-AKT (Ser473) Inhibition Assay (HTRF), T-47D. To be noted: for IC50: Homo sapiens, T47D, T-47D, 1 hour treatment, read-out: p-AKT Inhibition assay (S473) IC50 T-47D; for Selectivity: SK-BR-3/T-47D (p-AKT): p-AKT (S473) IC50 ratio. Summed up: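 Cells seeded overnight in insulin-supplemented MEM, then treated 1 h with 11-point 1:3 compound dilutions (10 μM to 0.1 nM final, 0.1% DMSO). Lysates assayed for phospho-AKT Ser473 by HTRF; IC50 from 4-parameter logistic fit, normalised to DMSO (max) and 10 μM GDC0077 (min).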
Background: TR-FRET usually uses a lanthanide donor and a delayed reading to cut background.

Experiment [2] concerns WT cell line SK-BR-3. Kind of experiment: Phospho-AKT (Ser473) Inhibition Assay (HTRF), SK-BR-3. The conditions noted are these: Homo sapiens; SK-BR-3, 1 hour treatment; read-out: p-AKT Inhibition assay (S473) IC50 SK-BR-3. Summed up: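 SK-BR-3 (PI3Kα WT) cells seeded overnight in MEM with insulin, then treated 1 h with 11-point 1:3 dilutions (10 μM to 0.1 nM, 0.1% DMSO). Lysates read for phospho-AKT Ser473 by HTRF after 4 h antibody incubation at room temperature. IC50 from 4-parameter fit, % inhibition normalized to DMSO (max) and 10 μM GDC0077 (min).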

Experiment [3] deals with WT cell line SK-BR-3. The experiment is described as follows: Cell Proliferation Assay (CellTiter-Glo), SK-BR-3. The conditions noted are these: Homo sapiens, 72 h; SK-BR-3, 3 days treatment. In short, it runs like this: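 SK-BR-3 cells treated for 3 days with compound in a 9-point series, final concentrations 10 M to 1 nM in 0.1% DMSO. Viability read by CellTiter-Glo luminescence. Relative IC50 from percent inhibition versus medium-only and DMSO controls, four-parameter logistic fit.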
In general terms: Cellular ATP, detected with luciferase, serves as a proxy for viable cell number.

Each structure is given as a SMILES string. Bounds are passed on as bounds.

Turning to `Cc1cc(C(C)Nc2ccccc2C(=O)O)c2cc(-c3ccc(C#N)cc3)n(C)c(=O)c2c1` (stereo not drawn) [Example 4, 2-((1-(3-(4-cyanophenyl)-2,7-dimethyl-1-oxo-1,2-dihydroisoquinolin-5-yl)ethyl)amino)benzoic acid], the results for the IC50 (in experiment [1]; in the experiment with WT cell line SK-BR-3 [2]; in the experiment with WT cell line SK-BR-3 [3]) were 0.144 µM, over 10 µM and over 10 µM, respectively. Also, in experiment [1], the “Selectivity: SK-BR-3/T-47D (p-AKT)” value is over 69.
Take `Cc1cc(C(C)Nc2ccccc2C(=O)O)c2cc(-c3cnn(C)c3)n(C)c(=O)c2c1` (stereo not drawn) [Example 91, 2-((1-(2,7-dimethyl-3-(1-methyl-1H-pyrazol-4-yl)-1-oxo-1,2-dihydroisoquinolin-5-yl)ethyl)amino)benzoic acid]: the IC50 was 0.41 µM in experiment [1], 4.73 µM in the experiment on WT cell line SK-BR-3 [2] and over 10 µM in the experiment on WT cell line SK-BR-3 [3]. The “Selectivity: SK-BR-3/T-47D (p-AKT)” value in experiment [1] was 11.6.
On the same counts, the results for `Cc1cc(C(C)Nc2sc3ccccc3c2C(=O)O)c2cc(-c3ccccc3)n(C)c(=O)c2c1` (stereo not drawn) [Example 92, 2-((1-(2,7-dimethyl-1-oxo-3-phenyl-1,2-dihydroisoquinolin-5-yl)ethyl)amino)benzo[b]thiophene-3-carboxylic acid] are 0.109 µM, over 10 µM, over 10 µM and over 91.

What is called IC50 is the concentration needed to halve the response being measured.
